Measurements reported in patent publication US12503452B2 (Curza Global, LLC, priority 2019, dated 2025).
Where a name gives a salt, the structure may show the parent alone. Read-outs that look alike come from different tables or passages of the source.

Columns and labels:
[1] = system: E. coli S30 extract (bacterial protein synthesis); assay: E. coli S30 extract coupled transcription-translation luciferase assay (inhibition of bacterial protein synthesis); format: biochemical; settings: read-out: S30 IC50 (μM/% inhib.)
Procedure, shortened: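 Luminescent read-out of luciferase made from pBESTluc DNA by E. coli S30 extract after 1 h at 37 °C with compound in an 8-point 2-fold series. Background came from no-DNA reactions. Percent inhibition was calculated against water-only controls.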

[2] = target: Rabbit Reticulocyte Lysate (eukaryotic protein synthesis); assay: Rabbit reticulocyte lysate luciferase assay (inhibition of eukaryotic protein synthesis); format: biochemical; settings: read-out: Rabbit reticulocyte IC50 (μM/% inhib.)
Procedure, shortened: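 Compounds were tested in 8-point 2-fold dilution series for blocking luciferase synthesis in nuclease-treated rabbit reticulocyte lysate (30° C., 90 minutes). Luminescence read-out, corrected by no-RNA background, was expressed as % inhibition against water-only reactions.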

A. baumannii (Ab) = assay: Broth microdilution minimum inhibitory concentration (MIC); format: cell-based; settings: Acinetobacter baumannii, read-out: Ab + bicarb MIC
Procedure, shortened: (§1)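 MICs were run in triplicate per CLSI microdilution (modified, 8 dilution steps), inoculating 5×10^4 CFU/well prepared from colonies grown at 35±2° C to 0.5 McFarland. Media: CAMHB alone, with 6.25 or 25 mM final sodium bicarbonate, or with 0–50% heat-inactivated human serum.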

E. coli (Ec) = assay: as above; format: cell-based; settings: Escherichia coli, read-out: E. coli + bicarb MIC
Procedure, shortened: as §1

E. faecalis (Ef) = assay: as above; format: cell-based; settings: Enterococcus faecalis, read-out: Ef + bicarb MIC
Procedure, shortened: as §1

P. aeruginosa (Pa) = assay: as above; format: cell-based; settings: Pseudomonas aeruginosa, read-out: Pa MIC + bicarb
Procedure, shortened: as §1

S. aureus (Sa) = assay: as above; format: cell-based; settings: Staphylococcus aureus, read-out: Sa + bicarb MIC
Procedure, shortened: as §1

[3] = class by IC50 or % inhibition @ 1 μM
[4] = A. baumannii, growth medium with sodium bicarbonate
[5] = E. coli, growth medium with sodium bicarbonate
[6] = E. faecalis, growth medium with sodium bicarbonate
[7] = P. aeruginosa, growth medium with sodium bicarbonate
[8] = S. aureus, growth medium with sodium bicarbonate
[9] = A. baumannii, growth medium supplemented with sodium bicarbonate
[10] = E. coli, growth medium supplemented with sodium bicarbonate
[11] = E. faecalis, growth medium supplemented with sodium bicarbonate
[12] = P. aeruginosa, growth medium supplemented with sodium bicarbonate
[13] = S. aureus, growth medium supplemented with sodium bicarbonate

| Structure (SMILES) | IC50 [1, 3] [µM] | IC50 [2, 3] [µM] | MIC (A. baumannii (Ab)) [µg/mL] | MIC (E. coli (Ec)) [µg/mL] | MIC (E. faecalis (Ef)) [µg/mL] | MIC (P. aeruginosa (Pa)) [µg/mL] | MIC (S. aureus (Sa)) [µg/mL] | MIC (A. baumannii (Ab); [4]) [µg/mL] | MIC (E. coli (Ec); [5]) [µg/mL] | MIC (E. faecalis (Ef); [6]) [µg/mL] | MIC (P. aeruginosa (Pa); [7]) [µg/mL] | MIC (S. aureus (Sa); [8]) [µg/mL] | IC50 ([1]; % inhibition @ 1 μM) [µM] | IC50 ([2]; % inhibition @ 1 μM) [µM] | MIC (A. baumannii (Ab); [9]) [µg/mL] | MIC (E. coli (Ec); [10]) [µg/mL] | MIC (E. faecalis (Ef); [11]) [µg/mL] | MIC (P. aeruginosa (Pa); [12]) [µg/mL] | MIC (S. aureus (Sa); [13]) [µg/mL] |
| --- | --- | --- | --- | --- | --- | --- | --- | --- | --- | --- | --- | --- | --- | --- | --- | --- | --- | --- | --- |
| CC(C)(N)C(=O)N1CCN(C(=O)Nc2ccn(-c3ccc(CN(CC4CC4)C4CCC(N)CC4)c(OC(F)(F)F)c3)c(=O)n2)CC1 (stereo not shown) [Compound 331, hydrochloride salt] | < 0.5 | > 1 | > 32 | < 8 | 8 to 32 | > 32 | 8 to 32 |  |  |  |  |  |  |  |  |  |  |  |  |
| CC(C)(N)C(=O)N1CCN(C(=O)Nc2ccn(-c3ccc(CCNCC4CNC4)cc3)c(=O)n2)CC1 [Compound 345, hydrochloride salt] | 0.5 to 1 | > 1 | > 32 | > 32 | > 32 | > 32 | > 32 |  |  |  |  |  |  |  |  |  |  |  |  |
| NC1CCCN(CCc2ccc(-n3ccc(NC(=O)N4CC5(CCC5N)C4)nc3=O)cc2)CC1 (stereo not shown) [Compound 195] | 0.5 to 1 | > 1 |  |  |  |  |  | > 32 | > 32 | > 32 | > 32 | 8 to 32 |  |  |  |  |  |  |  |
| CC(COc1ccc(-n2ccc(NC(=O)N3CCN(C(=O)C(C)(C)N)CC3)nc2=O)cc1)N1CCCC(N)CC1 (stereo not shown) [Compound 191] | 0.5 to 1 | > 1 |  |  |  |  |  | > 32 | < 8 | 8 to 32 | > 32 | < 8 |  |  |  |  |  |  |  |
| CC(C)(N)C(=O)N1CCN(C(=O)Nc2ccn(-c3ccc(CN4CC[C@@H](N)[C@@H](F)C4)cc3)c(=O)n2)CC1 [Compound 209] | > 1 | > 1 |  |  |  |  |  | > 32 | < 8 | > 32 | > 32 | > 32 |  |  |  |  |  |  |  |
| C[C@@](N)(CO)C(=O)N1CCN(C(=O)Nc2ccn(-c3ccc(CCN4CCC(N)CC4)cc3)c(=O)n2)CC1 [Compound 199] | < 0.5 | > 1 |  |  |  |  |  | > 32 | < 8 | > 32 | > 32 | 8 to 32 |  |  |  |  |  |  |  |
| CC(CN1CC(N)C1)Oc1ccc(-n2ccc(NC(=O)N3CCN(C(=O)C(C)(C)N)CC3)nc2=O)cc1 (stereo not shown) [Compound 182] | > 1 | > 1 |  |  |  |  |  | > 32 | 8 to 32 | > 32 | > 32 | > 32 |  |  |  |  |  |  |  |
| CC(C)(N)C(=O)N1CCN(C(=O)Nc2ccn(-c3ccc(CC(=O)N4CCC(N)CC4)cc3)c(=O)n2)CC1 [Compound 269] | > 1 | > 1 |  |  |  |  |  | > 32 | 8 to 32 | > 32 | > 32 | > 32 |  |  |  |  |  |  |  |
| CC(C)N(Cc1ccc(-n2ccc(NC(=O)N3CCN(C(=O)C(C)(C)N)CC3)nc2=O)cc1)C1CCC(N)CC1 (stereo not shown) [Compound 356] |  |  |  |  |  |  |  | > 32 | > 32 | > 32 | > 32 | > 32 | > 1 | > 1 |  |  |  |  |  |
| CC(C)(N)C(=O)N1CCN(C(=O)Nc2ccn(-c3ccc(CCN[C@H]4CC[C@@H](CN)C4)cc3)c(=O)n2)CC1 (stereo in doubt) [Compound 177] | > 1 | > 1 |  |  |  |  |  | > 32 | < 8 | > 32 | > 32 | < 8 |  |  |  |  |  |  |  |
| CCN(C[C@H]1CCC[C@H](N)C1)C(C)Cc1ccc(-n2ccc(NC(=O)N3CCN(C(=O)C(C)(C)N)CC3)nc2=O)cc1 (stereo partly shown) [Compound 280] | 0.5 to 1 | > 1 |  |  |  |  |  | > 32 | < 8 | < 8 | > 32 | < 8 |  |  |  |  |  |  |  |
| CC(C)(N)C(=O)N1CCN(C(=O)Nc2ccn(-c3ccc(CN[C@H]4CC[C@H](N)CC4)c(F)c3)c(=O)n2)CC1 [Compound 330, 4-(2-Amino-2-methylpropanoyl)-N-(1-(4-(((trans-4-aminocyclohexyl)amino)methyl)-3-fluorophenyl)-2-oxo-1,2-dihydropyrimidin-4-yl)piperazine-1-carboxamide hydrochloride salt] | < 0.5 | > 1 | > 32 | < 8 | > 32 | > 32 | 8 to 32 |  |  |  |  |  |  |  |  |  |  |  |  |
| CC(COc1ccc(-n2ccc(NC(=O)N3CCN(C(=O)C(C)(C)N)CC3)nc2=O)cc1)N1CC[C@@H](CN)C1 (stereo partly shown) [Compound 186] | < 0.5 | > 1 |  |  |  |  |  | > 32 | < 8 | 8 to 32 | > 32 | < 8 |  |  |  |  |  |  |  |
| CC(N)C1CCN(Cc2ccc(-n3ccc(NC(=O)N4CCN(C(=O)[C@@](C)(N)CO)[C@H](C)C4)nc3=O)cc2)CC1 (stereo partly shown) [Compound 70] | < 0.5 | > 1 |  |  |  |  |  |  |  |  |  |  |  |  | > 32 | < 8 | < 8 | > 32 | < 8 |
| CC(C)(N)C(=O)N1CCN(C(=O)Nc2ccn(-c3ccc(CCN[C@@H]4CC[C@H](N)C4)cc3)c(=O)n2)CC1 [Compound 181] | < 0.5 | > 1 |  |  |  |  |  | > 32 | < 8 | 8 to 32 | > 32 | < 8 |  |  |  |  |  |  |  |
| CC(C)(N)C(N1CCN(C(=O)Nc2ccn(-c3ccc(CN4CCC(N)CC4)cc3)c(=O)n2)CC1)C(F)(F)F (stereo not shown) [Compound 291, hydrochloride salt] | > 1 | > 1 | 8 to 32 | 8 to 32 | 8 to 32 | > 32 | < 8 |  |  |  |  |  |  |  |  |  |  |  |  |
| CCN(Cc1ccc(-n2ccc(NC(=O)N3CCN(C(=O)C(C)(C)N)CC3)nc2=O)cc1)CC1CC(N)C1 (stereo not shown) [Compound 128] | < 0.5 | > 1 |  |  |  |  |  |  |  |  |  |  |  |  | > 32 | < 8 | < 8 | 8 to 32 | < 8 |
| CC(C)(N)C(=O)N1CCN(C(=O)Nc2ccn(-c3ccc(C[C@H](N)C(=O)N4CCCC(N)CC4)cc3)c(=O)n2)CC1 (stereo partly shown) [Compound 148] | < 0.5 | > 1 |  |  |  |  |  |  |  |  |  |  |  |  | > 32 | > 32 | > 32 | > 32 | > 32 |
| CC(C)(N)C(=O)N1CCN(C(=O)Nc2ccn(-c3ccc(CCCN4CC(N)C4)cc3)c(=O)n2)CC1 [Compound 32] | > 1 | > 1 |  |  |  |  |  |  |  |  |  |  |  |  | > 32 | 8 to 32 | > 32 | > 32 | 8 to 32 |
